# Results from patent US11149049B2, “Substituted nucleosides, nucleotides and analogs thereof” (JANSSEN BIOPHARMA, INC., priority 2017, dated 2021).
# Where two headings read alike, the source gives them in different places.
# Tests used:
# [1] = target: hepatitis C virus RNA polymerase (Hepatitis C virus genotype 1a (isolate H77) (HCV), UniProt P27958); assay: HCV polymerase assay (HCVpol); assay type: biochemical; settings: recombinant enzyme, tritiated NMP incorporation, 2.5 hours at 30° C.
# Protocol: The enzyme activity of hepatitis C virus RNA polymerase (HCVpol) and human rhinovirus 16 RNA polymerase (HRV16pol) is measured as an incorporation of tritiated NMP into acid-insoluble RNA products. HCVpol and HRV16pol assay reactions contain 30-100 nM recombinant enzyme, 50-500 nM heteropolymeric RNA, 0.5 μCi tritiated NTP, 0.1-1 μM of other NTPs, in a standard reaction buffer containing MgCl2. Enzymatic reactions are incubated for 2.5 hours at 30° C., in the presence of increasing concentration of inhibitor. At the end of the reaction, the total RNA is precipitated with 10% TCA, and acid-insoluble RNA products are filtered on a size exclusion 96-well plate. After washing of the plate, scintillation liquid is added and radiolabeled RNA products are detected according to standard procedures with a Trilux Microbeta scintillation counter. The compound concentration at which the enzyme-catalyzed rate is reduced by 50% (IC50) is calculated by fitting the data to a non-linear regression (sigmoidal).
# [2] = target: dengue virus NS5 polymerase domain (Dengue virus type 2, UniProt P14340); assay: Dengue polymerase assay (DENVpol); settings: 100 nM recombinant enzyme, 3 hours at 30° C., mean of several independent experiments
# Protocol: The enzyme activity of dengue virus NS5 polymerase domain (DENVpol, serotype 2, New Guinea C strain) was measured as an incorporation of tritiated NMP into acid-insoluble RNA products. DENVpol assay reactions contained 100 nM recombinant enzyme, 50 nM heteropolymeric RNA, about 0.5 μCi tritiated NTP, 0.33 μM of competing cold NTP, 40 mM HEPES (pH 7.5), 3 mM dithiothreitol, and 2 mM MgCl2. Standard reactions were incubated for 3 hours at 30° C., in the presence of increasing concentration of inhibitor. At the end of the reaction, RNA was precipitated with 10% TCA, and acid-insoluble RNA products were filtered on a size exclusion 96-well plate. After washing of the plate, scintillation liquid was added and radiolabeled RNA products were detected according to standard procedures with a Trilux Topcount scintillation counter. The compound concentration at which the enzyme-catalyzed rate was reduced by 50% (IC50) was calculated by fitting the data to a non-linear regression (sigmoidal).
# [3] = target: human rhinovirus 16 RNA polymerase (Human rhinovirus 16 (HRV-16), UniProt Q82122); assay type: biochemical; settings: recombinant enzyme, tritiated NMP incorporation, 2.5 hours at 30° C.; read-out: HRV16pol IC50
# human rhinovirus 16 RNA polymerase, sequence (Q82122 1694-2153 limits assumed): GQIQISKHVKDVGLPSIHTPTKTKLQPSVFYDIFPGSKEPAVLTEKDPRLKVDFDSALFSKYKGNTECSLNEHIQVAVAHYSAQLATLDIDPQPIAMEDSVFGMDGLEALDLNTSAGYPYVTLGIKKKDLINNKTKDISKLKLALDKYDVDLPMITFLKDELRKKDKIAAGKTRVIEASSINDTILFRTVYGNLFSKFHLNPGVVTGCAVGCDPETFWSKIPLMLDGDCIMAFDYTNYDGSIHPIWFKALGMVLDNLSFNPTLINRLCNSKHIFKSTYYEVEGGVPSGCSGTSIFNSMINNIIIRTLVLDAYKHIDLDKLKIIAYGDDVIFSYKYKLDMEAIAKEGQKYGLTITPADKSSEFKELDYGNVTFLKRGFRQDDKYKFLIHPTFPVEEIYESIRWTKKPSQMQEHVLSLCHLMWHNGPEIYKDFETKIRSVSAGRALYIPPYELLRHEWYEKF
# [4] = Cell viability (CC50) in the RSV replicon assay; settings: human, HeLa-derived cells containing the stable RSV replicon, CellTiter-Glo
# [5] = Cytotoxicity in the coronavirus assay, uninfected parallel cultures; assay type: cell-based; settings: human, read-out: OC43CoV CC50
# Protocol: (§1) The human β-coronavirus strain OC43 was purchased from ATCC (Manassas, Va.; item numbers VR-1558 and VR-740, respectively). 24 hours prior to dosing, HeLa human cervix epithelial cells (ATCC, CCL-2) or MRC-5 human lung fibroblast (ATCC, CCL-171) were plated in 96 well plates at a density of 1.5×10^5/ml in DMEM medium supplemented with 10% fetal bovine serum, 1% HEPES buffer, 1% Penicillin/Streptomycin and 1% non-essential amino acids (all Mediatech, Manassas, Va.). At the day of infection, serially diluted compounds were added to cells and incubated for 4 hours. After the end of the 4 hour pre-incubation period, cells were infected with either coronavirus strain OC43 or 229E. The virus inoculum was selected to cause 80-90% cytopathic effect. Infected cells were incubated for five days at 37° C., 5% CO2. To develop the assay, 100 μl media was replaced with 100 μl CellTiter-Glo® reagent (Promega, Madison, Wis.), and incubated for 10 min at room temperature. Luminescence was measured on a Victor X3 multi-label plate reader. Potential compound cytotoxicity was determined using uninfected parallel cultures.
# [6] = Toxicity (CC50) in the HRV1B assay; settings: human
# [7] = tested on: Dengue virus type 2 NG-C or Dengue virus type 4 H241; assay: Dengue antiviral assay (DENV); assay type: cell-based; settings: Huh-7.5 cells, five to six days, CellTiter-Glo
# Protocol: The Dengue virus type 2 strain New Guniea C (NG-C) and the Dengue virus type 4 strain H241 were purchased from ATCC (Manassas, Va.; item numbers VR-1584 and VR-1490, respectively). 24 hours prior to dosing, Huh-7.5 cells were plated in 96 well plates at a density of 1.5×10^5/ml in DMEM medium supplemented with 10% fetal bovine serum, 1% HEPES buffer, 1% Penicillin/Streptomycin and 1% non-essential amino acids (all Mediatech, Manassas, Va.). At the day of infection, serially diluted compounds were added to cells and incubated for 4 hours. After the end of the 4 hour pre-incubation period, cells were infected with either Dengue virus type 2 NG-C or Dengue virus type 4 H241. The virus inoculum was selected to cause 80-90% cytopathic effect in five to six days. Infected cells were incubated for five (NG-C) to six (H241) days at 37° C., 5% CO2. To develop the assay, 100 μl media was replaced with 100 μl CellTiter-Glo® reagent (Promega, Madison, Wis.), and incubated for 10 min at room temperature. Luminescence was measured on a Victor X3 multi-label plate reader. Potential compound cytotoxicity was determined using uninfected parallel cultures.
# [8] = tested on: Human rhinovirus 1B; assay: Rhinovirus antiviral assay (HRV1B); assay type: cell-based; settings: Rhinovirus A, 96 h, read-out: HRV 1B EC50, HeLa-OHIO cells, 4 d, CellTiter-Glo
# [9] = in vitro; settings: human
# [10] = tested on: human β-coronavirus strain OC43; assay: Coronavirus antiviral assay (OC43); assay type: cell-based; settings: Betacoronavirus 1, OC43, 120 h; HeLa or MRC-5 cells, five days, CellTiter-Glo; read-out: OC43CoV EC50
# Protocol: as §1
# [11] = Cytotoxicity in the DENV assay, uninfected parallel cultures; settings: human, DENV CC50, uninfected Huh-7.5 parallel cultures
# [12] = tested on: Ebola minigenome; assay: microbe, parasite or virus in culture; assay type: cell-based
# [13] = tested on: RSV replicon; assay: microbe, parasite or virus in culture; assay type: cell-based
# [14] = tested on: Huh-7.5 cells; assay: Cytotoxicity in the DENV assay, uninfected parallel cultures; settings: read-out: DENV CC50; uninfected Huh-7.5 parallel cultures
# [15] = Zaire ebolavirus, HEp-2, 48 h, read-out: EBOV EC50, HEp-2 cells, Ebola minigenome, 48 hours
# [16] = human respiratory syncytial virus, 168 h, read-out: RSV EC50, HeLa-derived RSV replicon cells, 7 days, luciferase
# hepatitis C virus RNA polymerase, sequence (P27958 2421-3011 limits assumed): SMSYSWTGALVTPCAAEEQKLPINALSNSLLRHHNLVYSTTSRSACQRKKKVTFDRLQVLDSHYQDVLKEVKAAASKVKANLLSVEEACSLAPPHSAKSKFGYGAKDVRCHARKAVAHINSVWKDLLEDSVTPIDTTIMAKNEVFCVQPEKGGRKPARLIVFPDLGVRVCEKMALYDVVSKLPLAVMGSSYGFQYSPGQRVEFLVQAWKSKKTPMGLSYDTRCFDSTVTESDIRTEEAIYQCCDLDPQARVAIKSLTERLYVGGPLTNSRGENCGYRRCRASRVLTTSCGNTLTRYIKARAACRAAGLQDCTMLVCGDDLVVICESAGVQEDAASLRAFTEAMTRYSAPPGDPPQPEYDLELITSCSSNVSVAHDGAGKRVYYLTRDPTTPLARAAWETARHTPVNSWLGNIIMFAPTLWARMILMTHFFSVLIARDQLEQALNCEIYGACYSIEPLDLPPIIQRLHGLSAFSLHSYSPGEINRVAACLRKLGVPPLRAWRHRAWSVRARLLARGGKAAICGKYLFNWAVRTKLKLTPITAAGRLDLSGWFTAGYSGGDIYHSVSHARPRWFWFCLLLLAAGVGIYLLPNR
SMILES,IC50 [1],IC50 [2],IC50 [3],CC50 at 7 days [4],CC50 at 5 days [5],CC50 at 4 d [6],"EC50 ([7]; Dengue virus, Huh7.5, 144 h)",EC50 [8],CC50 [9],EC50 [10],CC50 [11],"EC50 [12, 15]","EC50 [13, 16]",EC50 [7],"EC50 ([12]; read-out: EBOV EC50, HEp-2 cells, Ebola minigenome, 48 hours)","EC50 ([13]; read-out: RSV EC50, HeLa-derived RSV replicon cells, 7 days, luciferase)",CC50 [14]
"N#C[C@@]1(c2ccc3c(N)ncnn23)O[C@@](COP(=O)(O)OP(=O)(O)OP(=O)(O)O)(N=[N+]=[N-])[C@@H](O)[C@H]1O [Compound 14, ((2R,3S,4R,5R)-5-(4-Aminopyrrolo[2,1-f][1,2,4]triazin-7-yl)-2-azido-5-cyano-3,4-dihydroxytetrahydrofuran-2-yl)methyl tetrahydrogen triphosphate]",300 nM,1100 nM,40 nM,,,,,,,,,,,,,,
"N#C[C@@]1(c2ccc3c(N)ncnn23)O[C@H](COP(=O)(O)OP(=O)(O)OP(=O)(O)O)[C@@H](O)[C@H]1O [Compound C2, reference compound]",1000 nM,3600 nM,270 nM,,,,,,,,,,,,,,
"CCC(CC)COC(=O)[C@@H](C)NP(=O)(OC[C@@]1(F)O[C@@](C#N)(c2ccc3c(N)ncnn23)[C@H](O)[C@@H]1O)Oc1ccccc1 (stereo partly drawn) [Compound 9, 2-Ethylbutyl ((((2S,3S,4R,5R)-5-(4-aminopyrrolo[2,1-f][1,2,4]triazin-7-yl)-5-cyano-2-fluoro-3,4-dihydroxytetrahydrofuran-2-yl)methoxy)(phenoxy)phosphoryl)-D-alaninate]",,,,8100 nM,34000 nM,33000 nM,70 nM,130 nM,~50000 nM,25 nM,12000 nM,250 nM,18 nM,,,,
"C[C@H](NP(=O)(OC[C@@]1(F)O[C@@](C#N)(c2ccc3c(N)ncnn23)[C@H](O)[C@@H]1O)Oc1ccccc1)C(=O)OCC(C)(C)C (stereo partly drawn) [Compound 8, Neopentyl ((((2S,3S,4R,5R)-5-(4-aminopyrrolo[2,1-f][1,2,4]triazin-7-yl)-5-cyano-2-fluoro-3,4-dihydroxytetrahydrofuran-2-yl)methoxy)(phenoxy)phosphoryl)-L-alaninate]",,,,,> 50000 nM,64000 nM,110 nM,,> 100000 nM,100 nM,,500 nM,30 nM,140 nM,800 nM,26 nM,
"CC(C)CCOC(=O)C[C@H](NP(=O)(OC[C@@]1(F)O[C@@](C#N)(c2ccc3c(N)ncnn23)[C@H](O)[C@@H]1O)Oc1ccccc1)C(=O)OCCC(C)C (stereo partly drawn) [Compound 7, Diisopentyl ((((2S,3S,4R,5R)-5-(4-aminopyrrolo[2,1-f][1,2,4]triazin-7-yl)-5-cyano-2-fluoro-3,4-dihydroxytetrahydrofuran-2-yl)methoxy)(phenoxy)phosphoryl)-L-aspartate]",,,,21000 nM,13000 nM,12400 nM,1.4 nM,150 nM,14000 nM,56 nM,15000 nM,200 nM,30 nM,,,,21000 nM
CCCOC(=O)[C@H](C)NP(=O)(N[C@@H](C)C(=O)OCCC)OC[C@@]1(F)O[C@@](C#N)(c2ccc3c(N)ncnn23)[C@H](O)[C@@H]1O [Compound 10],,,,> 100000 nM,> 50000 nM,> 100000 nM,,3100 nM,,2300 nM,,,170 nM,,,,
"N#C[C@@]1(c2ccc3c(N)ncnn23)O[C@](F)(COP(=O)(O)OP(=O)(O)OP(=O)(O)O)[C@@H](O)[C@H]1O [Compound 12, ((2S,3S,4R,5R)-5-(4-Aminopyrrolo[2,1-f][1,2,4]triazin-7-yl)-5-cyano-2-fluoro-3,4-dihydroxytetrahydrofuran-2-yl)methyl tetrahydrogen triphosphate]",400 nM,1100 nM,130 nM,,,,,,,,,,,,,,
"CC(C)OC(=O)[C@@H](C)NP(=O)(OC[C@@]1(N=[N+]=[N-])O[C@@](C#N)(c2ccc3c(N)ncnn23)[C@H](O)[C@@H]1O)Oc1ccccc1 (stereo partly drawn) [Compound 11, Isopropyl ((((2R,3S,4R,5R)-5-(4-aminopyrrolo[2,1-f][1,2,4]triazin-7-yl)-2-azido-5-cyano-3,4-dihydroxytetrahydrofuran-2-yl)methoxy)(phenoxy)phosphoryl)-D-alaninate]",,,,13600 nM,> 50000 nM,59000 nM,,> 100000 nM,,> 50000 nM,,,1300 nM,,,,
"CC(C)OC(=O)[C@@H](C)NP(=O)(OC[C@@]1(F)O[C@@](C#N)(c2ccc3c(N)ncnn23)[C@H](O)[C@@H]1O)Oc1ccccc1 (stereo partly drawn) [Compound 5, Isopropyl ((((2S,3S,4R,5R)-5-(4-aminopyrrolo[2,1-f][1,2,4]triazin-7-yl)-5-cyano-2-fluoro-3,4-dihydroxytetrahydrofuran-2-yl)methoxy)(phenoxy)phosphoryl)-D-alaninate]",,,,> 100000 nM,> 100000 nM,,7370 nM,,,25300 nM,> 100000 nM,,2740 nM,,,,
"N#C[C@@]1(c2ccc3c(N)ncnn23)O[C@](CF)(COP(=O)(O)OP(=O)(O)OP(=O)(O)O)[C@@H](O)[C@H]1O [Compound 13, ((2R,3S,4R,5R)-5-(4-Aminopyrrolo[2,1-f][1,2,4]triazin-7-yl)-5-cyano-2-(fluoromethyl)-3,4-dihydroxytetrahydrofuran-2-yl)methyl tetrahydrogen triphosphate]",> 10000 nM,> 10000 nM,210 nM,,,,,,,,,,,,,,
